Assay results reported in patent EP4768499A1, “MACROCYCLIC PEPTIDE COMPOUND HAVING CELL MEMBRANE PERMEABILITY AND METABOLIC STABILITY, AND LIBRARY CONTAINING SAME” (Chugai Seiyaku Kabushiki Kaisha, priority 2023, dated 2025).
Starred links: 1 amine or outer side, 2 acyl side, 3 side chain; linkers in the order of their positions; H or OH if unused. Positions of bridges follow the written chain, without caps; N, C: chain ends. Non-standard residues stand in square brackets, D forms with d. Residues, ends and D or L forms follow the SMILES beside them. *: point of attachment. NMeF = CN[C@@H](Cc1ccccc1)C(=O)O; NMeI = CC[C@H](C)[C@H](NC)C(=O)O; NMeT = CN[C@H](C(=O)O)[C@@H](C)O; hPhe = N[C@@H](CCc1ccccc1)C(=O)O; NMeβAla = CN(CCC(=O)[*:2])[*:1]; NMeD = CN[C@@H](CC(=O)O)C(=O)O; NMeL = CN[C@@H](CC(C)C)C(=O)O; NMeV = CN[C@H](C(=O)O)C(C)C; NMeAbu = CC[C@H](NC)C(=O)O; NMeA = CN[C@@H](C)C(=O)O; Piperidide = C1CCN(*)CC1; Abu = CC[C@H](N)C(=O)O; NBuGly = CCCCNCC(=O)O; Sar = CNCC(=O)O; tBu = CC(C)(C)*

Assays:
Caco-2 cells = assay: Membrane permeability test using Caco-2 cells with preincubation; type: in vitro ADME; settings: Caco-2 cells, preincubation 20 to 24 hours; apical FaSSIF/HBSS 1% DMSO pH 6.0, basal HBSS 4% BSA pH 7.4; basal sample at 180 minutes
[1] = as above; type: in vitro ADME; settings: Caco-2; preincubation 20 to 24 hours; Apical FaSSIF/HBSS pH 6.0, Basal HBSS 4% BSA pH 7.4; 180 minutes; read-out: Caco2 Papp
[2] = Metabolic stability test: liver microsomal stability assay; type: in vitro ADME, mouse; settings: mouse liver microsomes 0.5 mg protein/mL, compound 1 µM; for microsomal CLint at 1 µM: male, pH 7.4, presence of NADPH, read-out: Mouse Hepatic Microsome CLh,int NADPH(+); for Mouse Hepatic Microsome CLh,int NADPH(-): absence of NADPH

Caco2 Papp (10^-6 cm/sec) (Caco-2 cells)	Papp A→B [1]	microsomal CLint at 1 µM [2]	Mouse Hepatic Microsome CLh,int NADPH(-) [2]	SMILES
0.13 10^-6 cm/sec	1.3 nm/s	32.4 µL/min/mg	34.0 µL/min/mg Protein	CC[C@H](C)[C@@H]1NC(=O)[C@H](CC(C)C)N(C)C(=O)[C@H](CC(C)C)NC(=O)CCN(C)C(=O)C[C@@H](C(=O)N2CCCCC2)N(C)C(=O)[C@H](CC(C)C)N(C)C(=O)[C@H](C)N(C)C(=O)[C@H]([C@@H](C)O)N(C)C(=O)[C@H](CC(C)C)N(C)C(=O)[C@H](COC(C)(C)C)NC(=O)[C@H](Cc2ccccc2)N(C)C(=O)[C@H](CC(C)C)N(C)C(=O)[C@H](Cc2ccccc2)N(C)C1=O [pd166] ([NMeβAla]L[NMeL]I[NMeF][NMeL][NMeF]S(tBu)[NMeL][NMeT][NMeA][NMeL][NMeD]-Piperidide; lactam N-13)
0.23 10^-6 cm/sec	2.3 nm/s	35.9 µL/min/mg	33.0 µL/min/mg Protein	CC[C@@H]1NC(=O)[C@H](Cc2ccccc2)N(C)C(=O)[C@H]([C@@H](C)O)NC(=O)[C@H](CC(C)C)N(C)C(=O)[C@H](C)N(C)C(=O)C[C@@H](C(=O)N2CCCCC2)N(C)C(=O)[C@H](CC(C)C)N(C)C(=O)[C@H]([C@@H](C)CC)N(C)C(=O)CN(C)C(=O)[C@H](CC(C)C)NC(=O)[C@H](Cc2ccccc2)N(C)C(=O)[C@H](CC(C)C)N(C)C(=O)[C@H]([C@@H](C)CC)N(C)C1=O [pd167] ([NMeA][NMeL]T[NMeF][Abu][NMeI][NMeL][NMeF]L[Sar][NMeI][NMeL][NMeD]-Piperidide; lactam N-13)
1.11 10^-6 cm/sec	11.1 nm/s	21.9 µL/min/mg	21.8 µL/min/mg Protein	CCCCN1CC(=O)N(C)[C@@H](Cc2ccccc2)C(=O)N[C@@H](CC(C)C)C(=O)N(C)[C@@H](C(C)C)C(=O)N(C)[C@@H](C)C(=O)N[C@@H](COC(C)(C)C)C(=O)N(C)[C@@H](CC)C(=O)N(C)[C@H](C(=O)N2CCCCC2)CC(=O)N(C)CC(=O)N(C)[C@@H](Cc2ccccc2)C(=O)N[C@@H]([C@@H](C)CC)C(=O)N(C)[C@@H](CC(C)C)C(=O)N(C)[C@@H]([C@@H](C)O)C1=O [pd168] ([Sar][NMeF]I[NMeL][NMeT][NBuGly][NMeF]L[NMeV][NMeA]S(tBu)[NMeAbu][NMeD]-Piperidide; lactam N-13)

SMILES	Caco2 Papp (10^-6 cm/sec) (Caco-2 cells)	Papp A→B [1]	microsomal CLint at 1 µM [2]	Mouse Hepatic Microsome CLh,int NADPH(-) [2]
CC[C@H](C)[C@@H]1NC(=O)CN(C)C(=O)C[C@@H](C(=O)N2CCCCC2)N(C)C(=O)[C@H](Cc2ccccc2)N(C)C(=O)[C@H](CC(C)C)N(C)C(=O)[C@H]([C@@H](C)O)NC(=O)[C@H](CC(C)C)N(C)C(=O)[C@H](CC(C)C)NC(=O)[C@H](C(C)C)N(C)C(=O)[C@H](C)N(C)C(=O)[C@H](CC(C)C)N(C)C(=O)[C@H](CCc2ccccc2)NC(=O)[C@H](CC(C)C)N(C)C1=O [pd165] ([Sar]I[NMeL][hPhe][NMeL][NMeA][NMeV]L[NMeL]T[NMeL][NMeF][NMeD]-Piperidide; lactam N-13)	0.10 10^-6 cm/sec	1 nm/s	40.9 µL/min/mg	27.2 µL/min/mg Protein
